Laboratory results taken from publication PMC6332095, “Purification and Partial Characterization of β-Glucosidase in Chayote (Sechium edule)” (Molecules, 2015).

Columns and labels:
[1] = test system: T1, β-glucosidase in Sechium edule (Sebg; chayotase); test: p-nitrophenol release, […] nm; Michaelis-Menten nonlinear fit; assay type: biochemical; settings: standard assay: sodium citrate 0.2 M, pH 5.0, 25 °C
T1 construct: native purification from fruit pulp (epicarp and mesocarp); homodimer 116 kDa, 58 kDa subunits; tryptic peptides MGFDAYR, FSIAWSR, WFENFLK, DFSEVCFK, EAMQAGVRVK, FGLTYIDYK, NNLK

[2] = biological target: β-glucosidase from chayote (Sechium edule) (Sechium edule); test: native gel or EMSA; native PAGE on 5%, 7.5%, 10% and 12.5% polyacrylamide gels, pH 8.3, Hedrick and Smith method; native mass 116 kDa compared with the 58 kDa subunit on SDS-PAGE

| Km [1] [mM] | stoichiometry N [2] | Molecule |
| --- | --- | --- |
| 4.88 |  | O=[N+]([O-])c1ccc(O[C@@H]2O[C@H](CO)[C@@H](O)[C@H](O)[C@H]2O)cc1 [p-nitrophenyl-β-D-glucopyranoside] |
|  | 2 | β-glucosidase from chayote (Sechium edule) (enzyme) |
